According to PubChem BioAssay (NCI):
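Five compound concentrations were applied to cells in 96-well plates for 48 hours; endpoints were derived by simple linear interpolation of the resulting dose-response curve. The concentration for 50% growth inhibition is given as GI50. TGI: concentration producing complete growth inhibition.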

Experiments:
Experiment in all cases: inhibition of tumour cell growth, NCI panel, 48 h
[1] = tested on: HS 578T breast
[2] = tested on: HOP-92 NSCLC
[3] = tested on: TK-10 renal
[4] = tested on: HOP-62 NSCLC
[5] = tested on: LOX IMVI melanoma
[6] = tested on: 786-0 renal
[7] = tested on: K-562 leukemia
[8] = tested on: EKVX NSCLC
[9] = tested on: SNB-75 CNS
[10] = tested on: MALME-3M melanoma
[11] = tested on: UO-31 renal
[12] = tested on: T-47D breast
[13] = tested on: A549 NSCLC
[14] = tested on: CAKI-1 renal
[15] = tested on: HCC-2998 colon
[16] = tested on: SK-MEL-2 melanoma
[17] = tested on: SNB-19 CNS
[18] = tested on: NCI-H23 lung
[19] = tested on: SK-MEL-28 melanoma
[20] = tested on: SK-OV-3 ovarian
[21] = tested on: SF-295 CNS
[22] = tested on: CCRF-CEM leukemia
[23] = tested on: NCI/ADR-RES ovarian
[24] = tested on: HCT-15 colon
[25] = tested on: MDA-MB-435
[26] = tested on: HCT-116 colon
[27] = tested on: SR leukemia
[28] = tested on: HT29 colon
[29] = tested on: IGROV1 ovarian
[30] = tested on: RPMI-8226 leukemia
[31] = tested on: KM12 colon
[32] = tested on: DU-145 prostate
[33] = tested on: BT-549 breast
[34] = tested on: NCI-H460 lung
[35] = tested on: UACC-257 melanoma
[36] = tested on: SK-MEL-5 melanoma
[37] = tested on: MDA-N
[38] = tested on: SF-268 CNS
[39] = tested on: NCI-H522 lung
[40] = tested on: SF-539 CNS
[41] = tested on: MDA-MB-231 breast
[42] = tested on: RXF 393 renal
[43] = tested on: OVCAR-5 ovarian
[44] = tested on: OVCAR-4 ovarian
[45] = tested on: MOLT-4 leukemia
[46] = tested on: SN12C renal
[47] = tested on: U251 CNS
[48] = tested on: HL-60(TB) leukemia
[49] = tested on: SW-620 colon
[50] = tested on: COLO 205 colon
[51] = tested on: OVCAR-3 ovarian
[52] = tested on: MCF7 breast
[53] = tested on: OVCAR-8 ovarian
[54] = tested on: PC-3 prostate
[55] = tested on: ACHN renal
[56] = tested on: UACC-62 melanoma
[57] = tested on: M14 melanoma
[58] = tested on: A498 renal
[59] = tested on: NCI-H226 lung

Fc1cccc(F)c1C1SCc2nc3cc(Cl)c(Cl)cc3n21 (stereo not given) gave a TGI [1] of over 100 µM, a TGI [2] of over 100 µM and a TGI [3] of over 100 µM. For the same compound, the TGI [4] was over 100 µM, the TGI [5] was over 100 µM and the TGI [6] was over 100 µM. For the same compound, the TGI [7] was over 100 µM, the TGI [8] was over 100 µM and the TGI [9] was over 100 µM. For the same compound, the TGI [10] was over 100 µM, the TGI [11] was over 100 µM and the TGI [12] was over 100 µM. For the same compound, the TGI [13] was over 100 µM, the TGI [14] was over 100 µM and the TGI [15] was over 100 µM. It also gave a TGI [16] of over 100 µM, a TGI [17] of over 100 µM and a TGI [18] of over 100 µM. The TGI [19] was over 100 µM, the TGI [20] was over 100 µM and the TGI [21] was over 100 µM. For the same compound, the TGI [22] was over 100 µM, the TGI [23] was over 100 µM and the TGI [24] was over 100 µM. It also gave a TGI [25] of over 100 µM, a TGI [26] of over 100 µM and a TGI [27] of over 100 µM. The TGI [28] was over 100 µM, the TGI [29] was over 100 µM and the TGI [30] was over 100 µM. For the same compound, the TGI [31] was over 100 µM, the TGI [32] was over 100 µM and the TGI [33] was over 100 µM. The TGI [34] was over 100 µM, the TGI [35] was over 100 µM and the TGI [36] was over 100 µM. For the same compound, the TGI [37] was over 100 µM, the TGI [38] was over 100 µM and the TGI [39] was over 100 µM. For the same compound, the TGI [40] was over 100 µM, the TGI [41] was over 100 µM and the TGI [42] was over 100 µM. It also gave a TGI [43] of over 100 µM, a TGI [44] of over 100 µM and a TGI [45] of over 100 µM. It also gave a TGI [46] of over 100 µM, a TGI [47] of over 100 µM and a TGI [48] of over 100 µM. For the same compound, the TGI [49] was over 100 µM, the TGI [50] was over 100 µM and the TGI [51] was over 100 µM. It also gave a TGI [52] of over 100 µM, a TGI [53] of over 100 µM and a TGI [54] of over 100 µM. It also gave a TGI [55] of over 100 µM, a TGI [56] of over 100 µM and a TGI [57] of over 100 µM.
For CCn1c(=O)c2nc(SC)sc2n(-c2ccc(C)cc2)c1=O, the TGI [1] was over 87.4 µM, the TGI [2] was over 100 µM and the TGI [3] was over 100 µM. It also gave a TGI [4] of over 100 µM, a TGI [5] of over 100 µM and a TGI [7] of over 100 µM. For the same compound, the GI50 [8] was 71.4 µM, the TGI [8] was over 100 µM and the TGI [9] was over 95.1 µM. For the same compound, the TGI [10] was over 81.7 µM, the TGI [11] was over 100 µM and the GI50 [58] was 28.2 µM. For the same compound, the TGI [58] was over 100 µM, the TGI [12] was over 100 µM and the TGI [13] was over 100 µM. For the same compound, the GI50 [14] was over 100 µM, the TGI [14] was over 100 µM and the TGI [15] was over 100 µM. For the same compound, the TGI [16] was over 100 µM, the TGI [17] was over 100 µM and the TGI [18] was over 100 µM. For the same compound, the TGI [19] was over 100 µM, the TGI [20] was over 100 µM and the TGI [21] was over 100 µM. It also gave a TGI [22] of over 100 µM, a TGI [23] of over 100 µM and a TGI [24] of over 100 µM. It also gave a TGI [26] of over 100 µM, a TGI [27] of over 100 µM and a TGI [28] of over 100 µM. It also gave a TGI [29] of over 100 µM, a TGI [30] of over 100 µM and a TGI [31] of over 100 µM. For the same compound, the TGI [32] was over 100 µM, the GI50 [33] was 33 µM and the TGI [33] was over 100 µM. It also gave a TGI [34] of over 100 µM, a TGI [35] of over 100 µM and a TGI [36] of over 100 µM. The TGI [59] was over 100 µM, the TGI [37] was over 100 µM and the TGI [38] was over 100 µM. It also gave a TGI [39] of over 100 µM, a TGI [40] of over 100 µM and a TGI [41] of over 100 µM. It also gave a TGI [42] of over 100 µM, a TGI [43] of over 100 µM and a TGI [44] of over 100 µM. The TGI [45] was over 100 µM, the TGI [46] was over 100 µM and the TGI [47] was over 100 µM. The TGI [48] was over 100 µM, the TGI [49] was over 100 µM and the TGI [50] was over 100 µM. For the same compound, the TGI [51] was over 100 µM, the TGI [52] was over 100 µM and the TGI [53] was over 100 µM. It also gave a TGI [54] of over 100 µM, a TGI [55] of over 100 µM and a GI50 [56] of 41.2 µM. The TGI [56] was over 100 µM and the TGI [57] was over 45.2 µM.
O=C1c2cc(Cc3ccccc3)c(=O)c(Cc3ccccc3)cc2C(=O)c2cc(Cc3ccccc3)c(=O)c(Cc3ccccc3)cc21 was tested, and the TGI [1] was over 100 µM, the TGI [2] was over 100 µM and the TGI [3] was over 100 µM. It also gave a TGI [4] of over 100 µM, a TGI [5] of over 100 µM and a TGI [6] of over 100 µM. It also gave a TGI [7] of over 100 µM, a TGI [8] of over 100 µM and a TGI [9] of over 100 µM. It also gave a TGI [10] of over 100 µM, a TGI [11] of over 100 µM and a TGI [58] of over 100 µM. The TGI [13] was over 100 µM, the TGI [14] was over 100 µM and the TGI [15] was over 100 µM. The TGI [16] was over 100 µM, the TGI [17] was over 100 µM and the TGI [18] was over 100 µM. For the same compound, the TGI [19] was over 100 µM, the TGI [21] was over 100 µM and the TGI [22] was over 100 µM. For the same compound, the TGI [23] was over 100 µM, the TGI [24] was over 100 µM and the TGI [25] was over 100 µM. It also gave a TGI [26] of over 100 µM, a TGI [27] of over 100 µM and a TGI [28] of over 100 µM. The TGI [29] was over 100 µM, the TGI [30] was over 100 µM and the TGI [31] was over 100 µM. The TGI [32] was over 100 µM, the TGI [33] was over 100 µM and the TGI [34] was over 100 µM. For the same compound, the TGI [35] was over 100 µM, the TGI [36] was over 100 µM and the TGI [59] was over 100 µM. It also gave a TGI [37] of over 100 µM, a TGI [38] of over 100 µM and a TGI [39] of over 100 µM. The TGI [40] was over 100 µM, the TGI [41] was over 100 µM and the TGI [42] was over 100 µM. It also gave a TGI [43] of over 100 µM, a TGI [44] of over 100 µM and a TGI [45] of over 100 µM. It also gave a TGI [46] of over 100 µM, a TGI [47] of over 100 µM and a TGI [48] of over 100 µM. For the same compound, the TGI [49] was over 100 µM, the TGI [50] was over 100 µM and the TGI [51] was over 100 µM. It also gave a TGI [52] of over 100 µM, a TGI [53] of over 100 µM and a TGI [54] of over 100 µM. For the same compound, the TGI [55] was over 100 µM and the TGI [57] was over 100 µM.
